Test system: DC
Experiment: LPS induced IL-6 secretion from single dendritic cells in droplets
Assay type: cell-based, mouse
Details: single DC co-encapsulated with LPS; versus droplets with no LPS
Excerpt: FIG. 16A is a schematic illustration of […] carried out in a microdroplet.
The activation and monitoring of live single cells for secretion and cell surface markers have been measured simultaneously. In particular, droplet based technology can be applied to simultaneously stimulate mouse DC maturation with an immunological adjuvant, lipopolysaccharide (LPS), and to monitor two phenotypic markers of DCs. The maturation phenotype of the live DC was followed by measuring CD86 expression and IL-6 secretion. DC were co-encapsulated with LPS and bioassay reagents (microsphere sensors and antibodies). This method made it possible to distinguish the responses of individual cells to LPS stimulation in the confined volume of droplets. In addition to CD86, LPS induced IL-6 secretion could be monitored from the same encapsulated single DCs (FIG. 16B). The signal was detected in droplets after 10 min in the array.

Substance: lipopolysaccharide [LPS]
- IL-6 levels in droplets: significantly higher

Source: patent US10802016B2, “Microdroplet based bioassay platform” (Northeastern University, priority 2015, dated 2020)
